Assay results taken from US4396770A, “1-[3-(6-Fluoro-1,2-benzisoxazol-3-yl)propyl]-4-hydroxy -4-phenylpiperidines” (Hoechst-Roussel Pharmaceuticals Inc., priority 1982, dated 1983).
Like-named read-outs stand apart in the source and are kept apart here.

Experiments:
[1] = test system: phenyl-para-quinone induced writhes; assay: phenyl-para-quinone writhing assay in mice (analgesia); assay type: in vivo; details: Mus musculus, sc, subcutaneous, estimated dose for 50% reduction in phenyl-para-quinone induced writhes, read-out: Analgesic Activity (ED50 mg/kg)
Excerpt: Exptl. Biol. Med., 95, 729 (1953)]. Presented in Table 1 is the analgesic activity of representative compounds of the invention and two standards, expressed as the estimated subcutaneous dose at which the mice experience a 50% reduction in phenyl-para-quinone induced writhes, i.e., the ED50 -value.

[2] = test system: apomorphine-induced climbing; assay: climbing mice assay (antipsychotic activity); assay type: in vivo, CK-1 male mice; details: Mus musculus, ip
Procedure: The 1-[3-(6-fluoro-1,2-benzisoxazol-3-yl)propyl]-4-hydroxy-4-phenylpiperidinesof the present invention are useful for treating psychoses by virtue of their ability to block apomorphine-induced climbing in mammals.
Antipsychotic activity is determined in the climbing mice assay by a method similar to those described by P. Protais et al., Psychopharmacol., 50, 1 (1976) and B. Costall, Eur. J. Pharmacol., 50, 39 (1978).
The subject CK-1 male mice (23-27 grams) are group-housed under standard laboratory conditions. The mice are individually placed in wire mesh stick cages (4"×4"×10") and are allowed one hour for adaptation and exploration of the new environment. Then apomorphine is injected subcutaneously at 1.5 mg/kg, a dose causing climbing in all subjects for 30 minutes. Compounds to be tested for antipsychotic activity are injected intraperitoneally 30 minutes prior to the apomorphine challenge at a screening dose of 10 mg/kg.
For evaluation of climbing, 3 readings are taken at 10, 20 and 30 minutes after apomorphine administration according to the following scale:
Mice consistently climbing before the injection of apormorphine will be discarded.
With full-developed apomorphine climbing, the animals are hanging onto the cage walls, rather motionless, over longer periods of time. By contrast, climbs due to mere motor stimulation usually only last a few seconds.
The climbing scores are individually totaled (maximal score: 6 per mouse over 3 readings) and the total score of the control group (vehicle intraperitoneally--apomorphine subcutaneously) is set to 100%. ED50 values with 95% confidence limits are calculated by a Linear Regression Analysis. Antipsychotic activity expressed as the ED50 value of representative 1-[3-(6-fluoro-1,2-benzisoxazol-3-yl)propyl]-4-hydroxy-4-phenylpiperidinesas well as two standard antipsychotics are presented in Table II.

[3] = read-out: Antipsychotic Activity ED50 (mg/kg)

Row | SMILES | ED50 [1] [mg/kg] | ED50 [2, 3] [mg/kg] | ED50 ([2]; mice, intraperitoneal 30 minutes prior to apomorphine 1.5 mg/kg subcutaneously, climbing scores at 10, 20 and 30 minutes, read-out: Antipsychotic Activity ED50) [mg/kg]
1 | OC1(c2ccccc2)CCN(CCCc2noc3cc(F)ccc23)CC1 [Example 1, 1-[3-(6-Fluoro-1,2-benzisoxazol-3-yl)propyl]-4-hydroxy-4-phenylpiperidine] | 5.9 | 9.6 | 
2 | Cl.OC1(c2cccc(Cl)c2)CCN(CCCc2noc3cc(F)ccc23)CC1 [Example 2, 4-(3-Chlorophenyl)-1-[3-(6-fluoro-1,2-benzisoxazol-3-yl)propyl]-4-hydroxypiperidine hydrochloride] | 0.8 | 0.8 | 
3 | OC1(c2ccc(Cl)cc2)CCN(CCCc2noc3cc(F)ccc23)CC1 [Example 3, 4-(4-Chlorophenyl)-1-[3-(6-fluoro-1,2-benzisoxazol-3-yl)propyl]-4-hydroxypiperidine] |  | 0.51 | 
4 | OC1(c2ccc(F)cc2)CCN(CCCc2noc3cc(F)ccc23)CC1 [Example 4, 1-[3-(6-Fluoro-1,2-benzisoxazol-3-yl)propyl]-4-(4-fluorophenyl)-4-hydroxypiperidine] | 6.2 | 0.8 | 
5 | Cc1ccccc1C1(O)CCN(CCCc2noc3cc(F)ccc23)CC1.Cl [Example 5, 1-[3-(6-Fluoro-1,2-benzisoxazol-3-yl)propyl]-4-hydroxy-4-(2-methylphenyl)piperidine hydrochloride] |  | 8.3 | 
6 | Cc1ccc(C2(O)CCN(CCCc3noc4cc(F)ccc34)CC2)cc1 [Example 6] |  | 0.56 | 
7 | COc1ccc(C2(O)CCN(CCCc3noc4cc(F)ccc34)CC2)cc1.Cl [Example 7, 1-[3-(6-Fluoro-1,2-benzisoxazol-3-yl)propyl]-4-hydroxy-4-(4-methoxyphenyl)piperidine hydrochloride] | 3.8 |  | 
8 | Cl.OC1(c2cccc(C(F)(F)F)c2)CCN(CCCc2noc3cc(F)ccc23)CC1 [Example 8, 1-[3-(6-Fluoro-1,2-benzisoxazol-3-yl)propyl]-4-hydroxy-4-(3-trifluoromethylphenyl)piperidine hydrochloride] | 1 | 0.25 | 
9 | OC1(c2ccc(C(F)(F)F)cc2)CCN(CCCc2noc3cc(F)ccc23)CC1 [Example 9, 1-[3-(6-Fluoro-1,2-benzisoxazol-3-yl)propyl]-4-hydroxy-4-(4-trifluoromethylphenyl)piperidine] |  | 3.1 | 
10 | O=C(CCCN1CCC(O)(c2ccc(Cl)cc2)CC1)c1ccc(F)cc1 [haloperidol, reference compound] |  | 0.11 | 
11 | CC(C)=CCN1CCC2(C)c3cc(O)ccc3CC1C2C (centres unmarked) [pentazocin, reference compound] | 1.3 |  | 
12 | CCC(=O)O[C@](Cc1ccccc1)(c1ccccc1)[C@H](C)CN(C)C [propoxyphene, reference compound] | 3.9 |  | 
13 | CCN1CCCC1CNC(=O)c1cc(S(N)(=O)=O)ccc1OC (centres unmarked) [sulpiride, reference compound] |  |  | 4.5
